Results published in patent US20250115942A1, “SCREENING METHOD FOR ANTI-PSEUDOMONAL AGENTS AND COMPOSITIONS AND METHODS FOR TREATING PSEUDOMONAS INFECTIONS” (Board of Regents for Oklahoma Agricultural and Mechanical …, priority 2021, published 2025).

Assays:
[1] = test system: Pseudomonas aeruginosa PA14; test: Growth curve analysis (OD600) in LB-Lennox; type: cell-based
Method: Strains of interest were grown on LB plates overnight, then inoculated into LB liquid broth until late stationary phase was reached (about 18 hours). Strains were then diluted 1,000-fold into fresh medium and grown to early exponential phase (about 4 hours). The optical density at 600 nm (OD600) was measured, and all cultures were normalized to an OD600 equal to 0.1. […] The plate was incubated in a BioTek Synergy H1 plate reader (BioTek, USA) at 37° C. for 20 h with orbital shaking. OD600 measurements were obtained every 2 minutes. […]

[2] = test system: R/F pyocin gene transcription (P07990-lux reporter); test: Kinetic luciferase assay, P07990-lux reporter for R/F pyocin expression; type: cell-based, Pseudomonas aeruginosa
Method: Strains of interest were cultured as described in the growth curve analysis section. Luminescence was measured in black or white clear-bottom 96-well microtiter plates at 3-min intervals at a sensitivity (gain) setting of 135 or 200 together with the OD600 for 20 hours on a BioTek Synergy H1 plate reader (BioTek, USA). Final luciferase activity values were calculated by normalizing luciferase luminescence to culture density.
Strains of interest were grown on LB plates overnight, and single colonies were inoculated into LB liquid broth with appropriate antibiotics and grown overnight with shaking at 37° C. Strains were then diluted 1,000-fold into fresh LB medium and grown to early exponential phase (2-4 hours). […] The plate was incubated in a BioTek Synergy H1 plate reader (BioTek, USA) at 37° C. for 20 h with double-orbital shaking. OD600 and luminescence (gain=135, integration time, 1 sec) measurements were obtained every 10 minutes. At least 3 biological replicates were assayed for each combination of strain and condition. Results were analyzed in MS Excel and plotted using GraphPad Prism.

[3] = test system: R/F pyocin expression (P07990-gfp reporter); type: cell-based, Pseudomonas aeruginosa; settings: wild-type PA14; 50 μM peptide, 135 min
Method: Strains of interest were grown in 3 mL of LB liquid broth overnight to obtain a saturated culture. They were then diluted 1,000-fold in fresh LB and grown to early exponential phase (about 4 hours). Cultures were concentrated by centrifuging 1 mL of exponential culture into a microcentrifuge tube at 5000 g for 1 min and resuspending in 100 μL. Cells were immobilized by spotting 0.5 μL of the concentrated mixture onto the pad and covering with cover glass. Imaging was performed on a Nikon Eclipse Ti inverted fluorescence microscope equipped with a Photometrics Prime 95B sCMOS digital camera, a Lumencor SOLA SE II 365 LED Light Engine, and an OKO temperature-controlled enclosure. Snapshot images of the slides were taken at 100× magnification in both phase and GFP channels. Automated timelapse imaging was performed at 37° C. For quantification of GFP-positive cells, images were analyzed using the MicrobeJ plugin for ImageJ, segmenting on phase-contrast and taking the mean GFP values of the corresponding fluorescence images. […]
Strains of interest were grown in 3 mL of LB liquid broth with appropriate antibiotics overnight. […] Imaging was immediately performed using a Nikon Eclipse Ti inverted fluorescence microscope with a Photometrics Prime 95B sCMOS digital camera, a Lumencor SOLA SE II 365 LED Light Engine, and an OKO temperature-controlled enclosure. […]

[4] = wild-type cells, 0.1-50 μM peptide with 0.03 μg/ml ciprofloxacin
[5] = wild-type cells, peptide 25-100 μM
[6] = wild-type cells, peptide concentrations in the 0.1-10 μM range (inhibitor: below 10 μM)
[7] = wild-type cells, 50 μM peptide co-treatment with 0.03 μg/ml ciprofloxacin

CO[C@@]12[C@H](COC(N)=O)C3=C(C(=O)C(C)=C(N)C3=O)N1C[C@@H]1N[C@@H]12 [MMC, mitomycin C]
culture growth ([1]; wild-type cells, 0.1 μg/ml MMC): inhibited cell growth to a slightly greater degree than 0.03 μg/ml ciprofloxacin | culture growth ([1]; xerCY272F, 0.1 μg/ml MMC): initially outgrew both untreated control cultures | peak pyocin expression, OD-normalized ([2]; wild-type cells, 0.1 μg/ml MMC): peaked at approximately tenfold that induced by ciprofloxacin | pyocin expression ([2]; xerCY272F ΔrecA, 0.1 μg/ml MMC): abolished ciprofloxacin- and MMC-mediated stimulation of pyocin expression | pyocin expression ([2]; xerCY272F, 0.1 μg/ml MMC): less expression in xerCY272F cultures than in the wild type | pyocin expression ([2]; ΔprtN (wild-type background), 0.1 μg/ml MMC): deletion of prtN abolished the ability of MMC to stimulate pyocin expression | pyocin expression ([2]; ΔrecA, 0.1 μg/ml MMC): deletion of recA fully abolished this very strong MMC-stimulated pyocin induction | peak pyocin expression relative to untreated cells ([2]; ΔxerC cells, 0.1 μg/ml MMC): approximately twofold stronger, peak of expression than in untreated cells | pyocin expression ([2]; ΔxerC ΔprtN, 0.1 μg/ml MMC): fully abrogated pyocin expression | pyocin expression ([2]; ΔxerC ΔrecA, 0.1 μg/ml MMC): independent of RecA

WKHYNY
culture growth [1, 4]: impacted neither culture growth nor pyocin expression | culture growth [1, 5]: no inhibition of growth | culture growth [1, 6]: correspondingly smaller effects, as did the control peptide | culture growth ([1]; ΔxerC cells, peptide 25-100 μM): inhibited by WRWYCR but not WKHYNY | pyocin expression [2, 4]: impacted neither culture growth nor pyocin expression | pyocin expression [2, 5]: Neither the WRWYCR inhibitor nor the WKHYNY control elicited pyocin expression beyond the level of untreated cells | pyocin expression ([2]; ΔxerC cells, peptide 25-100 μM): no differences in pyocin expression were observed

O=C(O)c1cn(C2CC2)c2cc(N3CCNCC3)c(F)cc2c1=O [ciprofloxacin]
culture growth ([1]; WT PA14 cells, 0.03 μg/ml ciprofloxacin): slower growth en route to a slightly lower final OD | culture growth ([1]; xerCY272F, 0.03 μg/ml ciprofloxacin): initially outgrew both untreated control cultures | OD600 reached in growth curve ([1]; Δ69700 cells, 0.03 μg/ml ciprofloxacin): 0.8 | culture growth (ciprofloxacin sensitivity) ([1]; ΔxerC strain, 0.03 μg/ml ciprofloxacin): sensitivity to ciprofloxacin similar to Δ69700

WRWYCR
culture growth ([1]; wild-type cells, 10 μM peptide): affected culture growth to a similar degree as 0.03 μg/ml ciprofloxacin | culture growth [1, 7]: initial inhibition of growth | culture growth [1, 5]: markedly impaired P. aeruginosa growth | culture growth [1, 6]: correspondingly smaller effects | culture growth ([1]; ΔxerC cells, peptide 25-100 μM): inhibited | pyocin expression ([2]; wild-type cells, 10 μM peptide co-treatment with 0.03 μg/ml ciprofloxacin): earlier and higher peak of pyocin expression relative to ciprofloxacin alone | pyocin expression [2, 7]: later peak of pyocin expression | pyocin expression ([2]; wild-type cells, 0.1-10 μM peptide): no increase in pyocin expression over untreated cells | pyocin expression [2, 5]: Neither the WRWYCR inhibitor nor the WKHYNY control elicited pyocin expression beyond the level of untreated cells | pyocin expression ([2]; ΔxerC cells, peptide 25-100 μM): no differences in pyocin expression were observed | GFP fluorescence of pyocin-GFP reporter cells [3]: did not elicit GFP fluorescence
